In patent publication US5691373A, “Nonpeptide endothelin antagonists I” (Warner-Lambert Company, priority 1995, dated 1997):
Where two headings read alike, the source gives them in different places.

Experiments:
ETA [1] = target: T1, ETA (Oryctolagus cuniculus, UniProt A5A8K3)
T1 sequence (A5A8K3 21-427): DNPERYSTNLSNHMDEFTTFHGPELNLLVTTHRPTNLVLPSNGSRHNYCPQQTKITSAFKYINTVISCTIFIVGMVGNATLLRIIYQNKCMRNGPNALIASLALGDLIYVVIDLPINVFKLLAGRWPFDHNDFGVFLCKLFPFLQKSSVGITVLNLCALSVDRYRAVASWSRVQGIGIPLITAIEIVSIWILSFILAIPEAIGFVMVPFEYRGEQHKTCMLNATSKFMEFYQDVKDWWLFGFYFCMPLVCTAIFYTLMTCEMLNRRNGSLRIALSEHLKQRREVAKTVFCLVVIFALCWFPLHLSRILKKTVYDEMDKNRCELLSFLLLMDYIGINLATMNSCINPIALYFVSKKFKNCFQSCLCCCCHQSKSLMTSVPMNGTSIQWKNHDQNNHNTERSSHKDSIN

ETB = target: T2, ETB (Rattus norvegicus, UniProt P21451)
T2 sequence (P21451 27-442): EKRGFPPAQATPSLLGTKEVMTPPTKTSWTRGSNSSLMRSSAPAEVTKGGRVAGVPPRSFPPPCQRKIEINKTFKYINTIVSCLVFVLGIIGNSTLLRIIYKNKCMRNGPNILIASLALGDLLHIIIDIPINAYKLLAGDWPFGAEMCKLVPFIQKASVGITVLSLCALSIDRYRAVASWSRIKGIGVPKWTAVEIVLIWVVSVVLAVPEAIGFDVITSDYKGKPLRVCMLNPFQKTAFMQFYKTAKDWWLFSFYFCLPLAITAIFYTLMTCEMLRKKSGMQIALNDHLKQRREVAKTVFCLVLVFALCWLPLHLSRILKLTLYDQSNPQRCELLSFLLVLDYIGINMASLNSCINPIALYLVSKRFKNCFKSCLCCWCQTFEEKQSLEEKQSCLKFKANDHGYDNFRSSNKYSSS

ETA [2] = target: T1, ETA; remark: listed apart in the source
Description: The cells used were rabbit renal artery vascular smooth muscle cells grown in a 48-well dish (1 cm^2) (confluent cells).
The growth media was Dulbecco's Modified Eagles/Ham's F12 which contained 10% fetal bovine serum and antibiotics (penicillin/streptomycin/fungizone).
Second, remove the assay buffers, place the dish on ice, and add 150 μL of cold assay buffer described above to each well. […] Next, place dish in a 37° C., water bath for about 2 hours and gently agitate the dish every 15 minutes. Discard the radioactive incubation mixture in the sink and wash wells 3 times with 1 mL of cold phosphate buffered saline.

human ETB receptor = target: T3, human ETB receptor (Homo sapiens, UniProt P24530); assay: ERBA-B: [125I]-ET-1 binding, recombinant human ETB receptor expressed in CHO-K1 cells
T3 construct: expressed in transfected cells; host or cells: CHO-K1 cells, pRc-CMW (so in the source) expression vector, electroporation; membranes used
T3 sequence (P24530 27-442): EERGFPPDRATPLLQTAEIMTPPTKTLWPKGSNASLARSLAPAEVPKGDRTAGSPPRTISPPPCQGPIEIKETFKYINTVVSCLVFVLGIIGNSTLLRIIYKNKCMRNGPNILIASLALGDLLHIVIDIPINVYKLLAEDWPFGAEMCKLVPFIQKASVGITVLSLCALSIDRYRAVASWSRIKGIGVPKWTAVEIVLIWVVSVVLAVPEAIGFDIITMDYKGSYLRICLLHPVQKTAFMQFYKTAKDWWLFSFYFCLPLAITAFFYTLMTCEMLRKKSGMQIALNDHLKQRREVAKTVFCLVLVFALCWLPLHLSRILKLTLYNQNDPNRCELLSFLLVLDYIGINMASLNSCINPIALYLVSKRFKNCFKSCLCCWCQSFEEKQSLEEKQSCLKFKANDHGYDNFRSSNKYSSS

ETA [3] = target: T1, ETA; assay: VERA-A: antagonism of ET-1 stimulated vasoconstriction in the rabbit femoral artery (ETA); format: cell-based
Description: Male New Zealand rabbits were killed by cervical dislocation and exsanguination. Femoral and pulmonary arteries were isolated, cleaned of connective tissue, and cut into 4-mm rings. The endothelium was denuded by placing the rings over hypodermic tubing (32 gauge for femoral rings and 28 gauge for pulmonary rings, Small Parts, Inc, Miami, Fla.) and gently rolling them. […] Resting tension was adjusted to 3.0 g for femoral and 4.0 g pulmonary arteries; the rings were left for 90 minutes to equilibrate.

[4] = ERBA-A IC50, [125I]-ET-1, rabbit renal artery vascular smooth muscle cells
[5] = human cloned ETB receptor, read-out: ERBA-B IC50, human cloned receptor data
[6] = ET-1, rabbit femoral artery, read-out: VERA-A pA2 (converted)
[7] = read-out: AAR-A, ET-1 (0.3 nM) stimulated arachidonic acid release
[8] = read-out: ERBA-A IC50, [125I]-ET-1, rabbit renal artery vascular smooth muscle cells

SMILES | IC50 (ETA [1]) | IC50 (ETA [2]; [4]) | IC50 (human ETB receptor; [5]) | Kb (ETA [3]; [6]) | other results
COc1ccc(C2(O)OC(=O)C(c3ccc4c(c3)OCO4)=C2Cc2ccc(C)cc2)cc1 (stereo not shown) [Example 76] | 520 nM | 50 nM | – | – | IC50 (ETB): 390 nM
COc1ccc(C2(O)OC(=O)C(c3ccc4c(c3)OCO4)=C2Cc2ccc(NC(C)=O)cc2)cc1C (stereo not shown) [Example 384, N-{4-[4-Benzo[1,3]dioxol-5-yl-2-hydroxy-2-(4-methoxy-3-methyl-phenyl)-5-oxo-2,5-dihydro-furan-3-ylmethyl]-phenyl}-acetamide] | 0.21 nM | 1 nM | 760 nM | 50.1 nM | –
COc1ccc(C2(O)OC(=O)C(c3cc(OC)cc(OC)c3)=C2Cc2ccc(OC(C)C)c(OC)c2)cc1 (stereo not shown) [Example 389, 3-(3,5-Dimethoxy-phenyl)-5-hydroxy-4-(4-isopropoxy-3-methoxy-benzyl)-5-(4-methoxy-phenyl)-5H-furan-2-one] | 2.4 nM | 3.6 nM | 1100 nM | – | –
COc1ccc(C2(O)OC(=O)C(c3ccc4c(c3)OCO4)=C2Cc2cccc(Cl)c2)cc1 (stereo not shown) [Example 75, 3-Benzo[1,3]dioxol-5-yl-4-(3-chlorobenzyl)-5-hydroxy-5-(4-methoxyphenyl)-5H -furan-2-one] | 71 nM | 16 nM | – | – | IC50 (ETB): 1200 nM
CCCOc1cccc(CC2=C(c3cc(OC)cc(OC)c3)C(=O)OC2(O)c2ccc(OC)cc2)c1 (stereo not shown) [Example 126, 3-(3,5-Dimethoxyphenyl)-5-hydroxy-5-(4-methoxyphenyl)-4-(3-propoxybenzyl)-5 H-furan-2-one] | 86 nM | 10 nM | 1500 nM | 200 nM | –
COc1ccc(C2(O)OC(=O)C(c3cc(OC)cc(OC)c3)=C2Cc2cccc(Cl)c2)cc1 (stereo not shown) [Example 127, 4-(3-Chlorobenzyl)-3-(3,5-dimethoxyphenyl)-5-hydroxy-5-(4-methoxyphenyl)-5H -furan-2-one] | 150 nM | 13 nM | 1200 nM | 631 nM | –
COc1ccc(C2(O)OC(=O)C(c3ccc4c(c3)OCO4)=C2Cc2cccnc2)cc1 (stereo not shown) [Example 160, 3-Benzo[1,3]dioxol-5-yl-5-hydroxy-5-(4-methoxyphenyl)-4-pyridin-3-ylmethyl-5H-furan-2-one] | 55 nM | 350 nM | – | – | –
COc1ccc(C2(O)OC(=O)C(c3ccc4c(c3)OCO4)=C2Cc2ccccc2)cc1OC (stereo not shown) [Example 190, 3-Benzo[1,3]dioxol-5-yl-4-benzyl-5-(3,4-dimethoxyphenyl)-5-hydroxy-5H-furan-2-one] | 780 nM | 65 nM | – | – | IC50 (ETB): 750 nM
COc1ccc(C2(O)OC(=O)C(c3ccc4c(c3)OCO4)=C2Cc2ccc(N(C)C)cc2)cc1 (stereo not shown) [Example 85, 3-Benzo[1,3]dioxol-5-yl-4-(4-dimethylaminobenzyl)-5-hydroxy-5-(4-methoxyphenyl)-5H-furan-2-one] | 200 nM | 23 nM | 1600 nM | 398 nM | –
COc1ccc(C2(O)OC(=O)C(c3ccc4c(c3)OCO4)=C2Cc2cccc(C)c2)cc1 (stereo not shown) [Example 90, 3-Benzo[1,3]dioxol-5-yl-5-hydroxy-5-(4-methoxyphenyl)-4-(3-methylbenzyl)-5H -furan-2-one] | 88 nM | 20 nM | 3500 nM | – | –
COc1ccc(C2(O)OC(=O)C(c3cc(OC)cc(OC)c3)=C2Cc2cccc(OC)c2)cc1 (stereo not shown) [Example 130, 3-(3,5-Dimethoxyphenyl)-5-hydroxy-4-(3-methoxybenzyl)-5-(4-methoxyphenyl)-5 H-furan-2-one] | 30 nM | 97 nM | 1200 nM | 200 nM | –
COc1ccc(C2(O)OC(=O)C(c3ccc4c(c3)OCO4)=C2CC2CCCCC2)cc1 (stereo not shown) [Example 221, 3-Benzo[1,3]dioxol-5-yl-4-cyclohexylmethyl-5-hydroxy-5-(4-methoxyphenyl)-5H -furan-2-one] | – | – | 240 nM | – | IC50 (ETA [1]; [7]): 120 nM; VERA-A pA2 (ETA [3]; ET-1, rabbit femoral artery): 6.4; IC50 (ETA [2]; [8]): 20 nM
COC(=O)c1ccc(CC2=C(c3ccc4c(c3)OCO4)C(=O)OC2(O)c2ccc(OC)cc2)cc1 (stereo not shown) [Example 182, 4-[4-Benzo[1,3]dioxol-5-yl-2-hydroxy-2-(4-methoxyphenyl)-5-oxo-2,5-dihydrof uran-3-ylmethyl]benzoic acid methyl ester] | 50 nM | 16 nM | 2000 nM | – | –
COc1ccc(C2(O)OC(=O)C(c3ccc4c(c3)OCO4)=C2Cc2cc(OC)c(OC)c(OC)c2)cc1 (stereo not shown) [Example 281, 3-benzo[1,3]dioxol-5-yl-5-hydroxy-5-(4-methoxyphenyl)-4-(3,4,5-trimethoxybenzyl)-5H-furan-2-one] | 7700 nM | 0.6 nM | – | – | –
COc1ccc(C2(O)OC(=O)C(c3ccc4c(c3)OCO4)=C2Cc2cc(OC)c(OC)c(OC)c2)cc1C (stereo not shown) [Example 383, 3-Benzo[1,3]dioxol-5-yl-5-hydroxy-5-(4-methoxy-3-methyl-phenyl)-4-(3,4,5-trimethoxy-benzyl)-5H-furan-2-one] | 7400 nM | 0.5 nM | 290 nM | – | –
COc1ccc(C2(O)OC(=O)C(c3cc(OC)cc(OC)c3)=C2Cc2cccc(C(F)(F)F)c2)cc1 (stereo not shown) [Example 128, 3-(3,5-Dimethoxyphenyl)-5-hydroxy-5-(4-methoxyphenyl)-4-(3-trifluoromethylbenzyl)-5H-furan-2-one] | 210 nM | 23 nM | 1600 nM | 1260 nM | –
COc1ccc(C2(O)OC(=O)C(c3cc(OC)cc(OC)c3)=C2Cc2cccnc2)cc1 (stereo not shown) [Example 133, 3-(3,5-Dimethoxyphenyl)-5-hydroxy-5-(4-methoxyphenyl)-4-pyridin-3methyl-5H-furan-2-one] | 76 nM | 30 nM | 6800 nM | – | –
C=CCOc1cc(CC2=C(c3cc(OC)cc(OC)c3)C(=O)OC2(O)c2ccc(OC)cc2)ccc1OC (stereo not shown) [Example 135, 4-(3-Allyloxy-4-methoxybenzyl)-3-(3,5-dimethoxyphenyl)-5-hydroxy-5-(4-methoxyphenyl)-5H-furan-2-one] | – | 9 nM | – | 126 nM | IC50 (ETB): 330 nM
COc1ccc(C2(O)OC(=O)C(c3ccc4c(c3)OCO4)=C2Cc2ccc(OC)c(C)c2)cc1 (stereo not shown) [Example 89, 3-Benzo[1,3]dioxol-5-yl-5-hydroxy-4-(4-methoxy-3-methylbenzyl)-5-(4-methoxyphenyl)-5H-furan-2-one] | – | – | – | – | IC50 (ETA [1]; [7]): 39 nM; VERA-A pA2 (ETA [3]; ET-1, rabbit femoral artery): 6.3; IC50 (ETA [2]; [8]): 6 nM
COc1ccc(C2(O)OC(=O)C(c3cc(OC)cc(OC)c3)=C2Cc2cc(OC)c(OC)c(OC)c2)cc1 (stereo not shown) [Example 388, 3-(3,5-Dimethoxy-phenyl)-5-hydroxy-5-(4-methoxyphenyl)-4-(3,4,5-trimethoxy-benzyl)-5H-furan-2-one] | 0.26 nM | 1.4 nM | 1100 nM | 100 nM | –
COc1ccc(C(=O)/C(Cc2cc(OC)c(OC)c(OC)c2)=C(\C(=O)O)c2ccc3c(c2)OCO3)cc1 [Example 354, Sodium 2-Benzo[1,3]dioxol-5-yl-4-(4-methoxy-phenyl)-4-oxo-3-(3,4,5-trimethoxy-benzyl)-but-2-enoate] | < 1 nM | 0.8 nM | – | – | IC50 (human ETB receptor; ERBA-B IC50, human cloned receptor data): 910 nM; Kb (ETA [3]): 31.6 nM
